This is an account of results in paper doi:10.1101/841569v1 (biorxiv, 2019).

In experiment [1] the target is T1, Mtb-MenD (Mycobacterium tuberculosis, UniProt P9WK11).
Experiment [2] has as its target T1, Mtb-MenD. The source holds these as a separate data set.
Experiment [3] deals with T1, Mtb-MenD. Description: biochemical.

T1 sequence (P9WK11 whole entry): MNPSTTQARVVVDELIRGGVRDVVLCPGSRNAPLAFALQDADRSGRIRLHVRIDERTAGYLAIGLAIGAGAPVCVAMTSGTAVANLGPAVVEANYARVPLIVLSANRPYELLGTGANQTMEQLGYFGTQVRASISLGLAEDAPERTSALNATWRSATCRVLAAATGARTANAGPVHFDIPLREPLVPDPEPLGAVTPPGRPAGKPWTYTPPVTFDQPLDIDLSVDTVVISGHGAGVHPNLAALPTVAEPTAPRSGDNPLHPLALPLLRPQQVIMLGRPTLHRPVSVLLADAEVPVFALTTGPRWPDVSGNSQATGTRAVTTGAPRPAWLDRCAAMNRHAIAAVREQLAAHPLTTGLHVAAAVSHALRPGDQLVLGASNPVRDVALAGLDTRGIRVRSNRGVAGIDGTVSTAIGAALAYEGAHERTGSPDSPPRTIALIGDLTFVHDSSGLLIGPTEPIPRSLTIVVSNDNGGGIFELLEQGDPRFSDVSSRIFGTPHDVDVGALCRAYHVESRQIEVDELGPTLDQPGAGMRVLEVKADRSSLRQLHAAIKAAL

Regarding `Cc1ncc(C[n+]2csc(CCOP(=O)(O)OP(=O)(O)O)c2C)c(N)n1` [ThDP], the “X-ray crystal structure (co-crystallised, 1 mM ThDP)” value in experiment [1] was “acofactor (ThDP) bound DHNA complex”.
As a reminder, the IC50 is the concentration that inhibits the measured activity by half. Higher therefore signals a need for much substance. As for `O=C(O)c1cc(O)c2ccccc2c1O` [DHNA], in experiment [2], the “% of non-inhibited activity at 20 μM” value was found to be 24 ± 1%. This molecule showed an IC50 in experiment [3] of 53 nM.
